Tests used:
CDK2/Cyclin A = CDK2/Cyclin A (Homo sapiens, UniProt P24941); test: CDK2/Cyclin A assay ([32P]ATP, Rb fragment); type: biochemical
CDK4/Cyclin D3 complex = CDK4/Cyclin D3 complex (Homo sapiens, UniProt P11802); test: CDK4/Cyclin D assay ([32P]ATP, Rb fragment)
human CHK1 (FL-CHK1) = target: T1, human CHK1 (FL-CHK1) (Homo sapiens, UniProt O14757); test: CHK1 assay (coupled spectrophotometric, Syntide-2); type: biochemical; details: for Ki: read-out: CHK-1 Ki; for CHK-1 @ 20 μM: Table 4, compound at 20 μM
T1 construct: C-terminally His-tagged full-length human CHK1 (FL-CHK1); made in house; host or cells: baculovirus/insect cell system
T1 sequence (O14757 1-476): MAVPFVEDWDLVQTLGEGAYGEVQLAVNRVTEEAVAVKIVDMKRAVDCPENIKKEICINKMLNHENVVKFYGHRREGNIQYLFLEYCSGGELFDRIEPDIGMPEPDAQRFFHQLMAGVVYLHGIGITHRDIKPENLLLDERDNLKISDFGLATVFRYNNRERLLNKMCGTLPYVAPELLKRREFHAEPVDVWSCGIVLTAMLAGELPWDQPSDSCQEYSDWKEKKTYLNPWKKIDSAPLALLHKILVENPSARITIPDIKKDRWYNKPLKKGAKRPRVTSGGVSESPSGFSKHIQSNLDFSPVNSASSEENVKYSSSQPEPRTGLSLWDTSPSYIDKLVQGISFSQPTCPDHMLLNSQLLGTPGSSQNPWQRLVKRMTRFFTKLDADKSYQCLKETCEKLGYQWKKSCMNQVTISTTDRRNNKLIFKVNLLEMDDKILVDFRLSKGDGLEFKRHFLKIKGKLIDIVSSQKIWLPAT
Description: CHK1 Construct for Assay: C-terminally His-tagged full-length human CHK1 (FL-CHK1) was expressed using the baculovirus/insect cell system. […] The protein was purified by conventional chromatographic techniques.
The production of ADP from ATP that accompanies phosphoryl transfer to the synthetic substrate peptide Syntide-2 ([…]) was coupled to oxidation of NADH using phosphoenolpyruvate (PEP) through the actions of pyruvate kinase (PK) and lactic dehydrogenase (LDH). The oxidation of NADH was monitored by following the decrease of absorbance at 340 nm (ε340=6.22 cm^−1 mM^−1) using a HP8452 spectrophotometer. […] Assays were initiated with 10 nM of FL-CHK1. Ki values were determined by measuring initial enzyme activity in the presence of varying concentrations of test compounds. The data were analyzed using Enzyme Kinetic and Kaleidagraph software.

[1] = test system: human umbilical vein endothelial cells (HUVEC); test: HUVEC proliferation assay (VEGF-stimulated, MTT); type: cell-based; details: Homo sapiens, HUVEC; read-out: HUVEC IC50
[2] = target: unphosphorylated VEGF-R2Δ50 (FLVK) (Homo sapiens, UniProt P35968, DEL940-989/E990V); test: VEGF-R2 coupled spectrophotometric assay, unphosphorylated VEGF-R2Δ50 (FLVK); details: FLVK Ki, Table 1
unphosphorylated VEGF-R2Δ50 (FLVK), sequence (P35968 with tags, fused parts or gaps DEL940-989/E990V limits assumed): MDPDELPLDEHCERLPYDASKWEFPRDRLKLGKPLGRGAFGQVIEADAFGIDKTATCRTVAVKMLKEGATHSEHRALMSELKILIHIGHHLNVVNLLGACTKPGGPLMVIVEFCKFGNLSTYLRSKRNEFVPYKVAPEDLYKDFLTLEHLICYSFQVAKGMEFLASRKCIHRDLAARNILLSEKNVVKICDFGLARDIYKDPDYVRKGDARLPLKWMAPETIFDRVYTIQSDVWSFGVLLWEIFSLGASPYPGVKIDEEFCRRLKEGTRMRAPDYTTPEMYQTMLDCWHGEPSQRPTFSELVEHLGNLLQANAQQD

human FGF-R1 = human FGF-R1 (Homo sapiens, UniProt P11362, C488A/C584S/L457V); test: FGF-R spectrophotometric assay
human FGF-R1, sequence (P11362 456-766 L457V/C488A/C584S): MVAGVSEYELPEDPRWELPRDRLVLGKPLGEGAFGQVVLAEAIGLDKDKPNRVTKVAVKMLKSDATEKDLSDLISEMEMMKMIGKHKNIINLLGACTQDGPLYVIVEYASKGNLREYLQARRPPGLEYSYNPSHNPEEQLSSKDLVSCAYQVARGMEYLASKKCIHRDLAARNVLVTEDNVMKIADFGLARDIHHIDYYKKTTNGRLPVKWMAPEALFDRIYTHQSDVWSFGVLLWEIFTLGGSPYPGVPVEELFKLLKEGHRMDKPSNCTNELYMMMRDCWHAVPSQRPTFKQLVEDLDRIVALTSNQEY

CDK4/Cyclin D3 complex, sequence (P11802 whole entry, the tested form may be a part): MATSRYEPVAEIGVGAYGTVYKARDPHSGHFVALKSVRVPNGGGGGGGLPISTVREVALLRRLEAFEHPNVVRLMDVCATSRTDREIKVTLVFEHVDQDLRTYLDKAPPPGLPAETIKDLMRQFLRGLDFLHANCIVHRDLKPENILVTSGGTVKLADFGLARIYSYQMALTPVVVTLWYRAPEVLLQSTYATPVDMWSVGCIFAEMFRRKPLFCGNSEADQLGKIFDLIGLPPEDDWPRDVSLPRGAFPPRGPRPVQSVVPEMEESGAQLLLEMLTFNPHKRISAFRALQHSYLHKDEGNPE
CDK4/Cyclin D3 complex, sequence (P30281 whole entry partner, the tested form may be a part): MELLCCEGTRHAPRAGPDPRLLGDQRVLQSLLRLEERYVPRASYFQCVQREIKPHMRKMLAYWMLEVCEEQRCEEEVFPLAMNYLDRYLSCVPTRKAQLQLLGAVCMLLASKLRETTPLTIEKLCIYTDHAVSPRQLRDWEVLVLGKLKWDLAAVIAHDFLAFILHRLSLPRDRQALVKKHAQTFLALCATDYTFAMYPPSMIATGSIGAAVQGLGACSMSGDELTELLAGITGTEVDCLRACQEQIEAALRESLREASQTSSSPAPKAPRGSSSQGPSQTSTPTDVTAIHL

Row | SMILES | Ki (CDK4/Cyclin D3 complex) | Ki (CDK2/Cyclin A; Table 2) | other results
1 | Fc1cccc(/C=C/c2n[nH]c3cc(-c4ccncc4)ccc23)c1F [29(l), 6-Pyrid-4-yl-3-E-[2-(2,3-difluorophenyl)ethenyl]-1H-indazole] | 5000 nM | – | Ki (CDK2/Cyclin A; Table 3): 3.1 µM
2 | Oc1ccc(-c2ccc3c(/C=C/c4ccccc4)n[nH]c3c2)cc1OCc1ccccc1 [Example 1(b), 3-(E-Styryl)-6-(3-benzyloxy-4-hydroxy-phenyl)-1H-indazole] | 1300 nM | – | Ki (human CHK1 (FL-CHK1); Table 1): 1400 nM; Ki (CDK2/Cyclin A; Table 1): 4 µM; IC50 [1]: > 1000 nM; Ki [2]: 2.2 nM
3 | COc1cc(-c2ccc3c(-c4ccc5ccccc5c4)n[nH]c3c2)ccc1O [Example 2(a), 3-(Naphthalen-2-yl)-6-(3-methoxy-4-hydroxy-phenyl)-1H-indazole] | 1600 nM | – | inhibition at 20 µM (human CHK1 (FL-CHK1); read-out: CHK-1 % inhibition, Table 1, @20 μM): 61%; Ki (CDK2/Cyclin A; Table 1): 0.61 µM; IC50 [1]: > 1000 nM; Ki [2]: 40 nM
4 | COc1cc(-c2ccc3c(-c4cc(OC)c(OC)c(OC)c4)n[nH]c3c2)ccc1O [Example 2(c), 3-(3,4,5-Trimethoxyphenyl)-6-(3-methoxy-4-hydroxy-phenyl)-1H-indazole] | 26000 nM | – | Ki (CDK2/Cyclin A; Table 1, μM): 50 µM; Ki [2]: 2600 nM
5 | Cc1cccc(C(=O)Nc2cccc(Oc3ccc4c(/C=C/c5ccccc5)n[nH]c4c3)c2)c1 [Example 5(b), 3-Methyl-N-[3-(3-styryl-1h-indazol-6-yloxy)-phenyl]-benzamide] | – | – | Ki (human FGF-R1): 14 nM
6 | Nc1cccc(Oc2ccc3c(/C=C/c4ccccc4)n[nH]c3c2)c1 [Example 7, 3-(Styryl-1H-indazol-6-yloxy)-phenylamine] | – | – | Ki (human CHK1 (FL-CHK1); Table 1): 1300 nM; Ki [2]: 18 nM
7 | Brc1cccc(Oc2ccc3c(/C=C/c4ccccc4)n[nH]c3c2)c1 [Example 8(d), 6-(3-Bromo-phenoxy)-3-styryl-1H-indazole] | – | – | Ki (human CHK1 (FL-CHK1); Table 1): 82000 nM; Ki [2]: 11 nM
8 | C=C(c1ccccc1)c1ccc2c(/C=C/c3ccccc3)n[nH]c2c1 [Example 10, 6-(1-Phenyl-vinyl)-3-styryl-1H-indazole] | – | – | Ki (human CHK1 (FL-CHK1); Table 1): 9100 nM; Ki [2]: 9 nM
9 | Cc1cc(O)ccc1-c1ccc2c(-c3nc4ccccc4[nH]3)n[nH]c2c1 [Example 24(b), 4-[3-(1-H-Benzoimidazol-2-yl)-1-H-indazol-6-yl]-3-methyl-phenol] | 3.2 nM | – | –
10 | CCc1cc(O)ccc1-c1ccc2c(-c3nc4ccccc4[nH]3)n[nH]c2c1 [Example 24(e), 3-1H-Benzoimidazol-2-yl-6-(2-ethyl-4-hydroxyphenyl)-1H-indazole] | 4.4 nM | 0.03 µM | –
11 | Oc1ccc(-c2ccc3c(-c4nc5ccccc5[nH]4)n[nH]c3c2)c(O)c1 [Example 24(f), 3-1H-Benzoimidazol-2-yl-6-(2,4-dihydroxyphenyl)-1H-indazole] | 7.4 nM | 0.0072 µM | –
12 | COCCc1cc(O)ccc1-c1ccc2c(-c3nc4ccccc4[nH]3)n[nH]c2c1 [Example 24(h), 3-1H-Benzoimidazol-2-yl-6-(2-(2-methoxyethyl)-4-hydroxyphenyl)-1H-indazole] | 53 nM | 0.054 µM | –
13 | Cc1cc(O)cc(C)c1-c1ccc2c(-c3nc4ccccc4[nH]3)n[nH]c2c1 [Example 24(j), 3-1H-Benzoimidazol-2-yl-6-(2,6-dimethyl-4-hydroxyphenyl)-1H-indazole] | 320 nM | 2.1 µM | –
14 | COc1cc(-c2ccc3c(-c4nc5ccccc5[nH]4)n[nH]c3c2)c(CO)cc1O [Example 24(n), 3-1H-Benzoimidazol-2-yl-6-(2-(hydroxymethyl)-5-methoxy-4-hydroxy-phenyl)-1H-indazole] | 19 nM | 0.035 µM | –
15 | Oc1cccc(-c2ccc3c(-c4nc5ccccc5[nH]4)n[nH]c3c2)c1 [Example 24(o), 3-1H-Benzoimidazol-2-yl-6-(3-hydroxyphenyl)-1H-indazole] | 200 nM | 0.029 µM | –
16 | COc1c(O)cccc1-c1ccc2c(-c3nc4ccccc4[nH]3)n[nH]c2c1 [Example 24(p), 3-1H-Benzoinidazol-2-yl-6-(2-methoxy-3-hydroxyphenyl)-1H-indazole] | 92 nM | 0.089 µM | –

Row | SMILES | Ki (CDK4/Cyclin D3 complex) | Ki (CDK2/Cyclin A; Table 2) | other results
17 | COc1cc(O)ccc1-c1ccc2c(-c3nc4cnccc4[nH]3)n[nH]c2c1 [Example 25(a), 3-(3H-Iniidazo[4,5-c]pyridin-2-yl)-6-(4-hydroxy-2-methoxyphenyl)-1H-indazole] | 21 nM | 0.08 µM | –
18 | COc1cc(O)ccc1-c1ccc2c(-c3nc4ccc(C(=O)NCCN5CCOCC5)cc4[nH]3)n[nH]c2c1 [Example 25(b), 3-[6-(2-Morpholin-4-yl-ethylcarbamoyl)-1H-benzoimidazol-2-yl]-6-(2-methoxy-4-hydroxyphenyl)-1H-indazole] | 48 nM | – | –
19 | COc1cc(O)ccc1-c1ccc2c(-c3nc4ccc(N5CCN(C)CC5)cc4[nH]3)n[nH]c2c1 [Example 25(c), 3-[6-(4-Methylpiperazin-1-yl)-1H-benzoimidazol-2-yl]-6-(2-methoxy-4-hydroxyphenyl)-1H-indazole] | 15.5 nM | – | –
20 | COc1cc(O)ccc1-c1ccc2c(-c3nc4c(N5CCN(C)CC5)cccc4[nH]3)n[nH]c2c1 [Example 25(d), 3-[4-(4-Methylpiperazin-1-yl)-1H-benzoinidazol-2-yl]-6-(2-methoxy-4-hydroxyphenyl)-1H-indazole] | 98 nM | 0.16 µM | –
21 | COc1cc(O)ccc1-c1ccc2c(-c3ncc[nH]3)n[nH]c2c1 [Example 25(e), 3-Imdazol-2-yl-6-(2-methoxy-4-hydroxyphenyl)-1H-indazole] | 181 nM | – | –
22 | COc1cc(O)ccc1-c1ccc2c(-c3nc4c(SCCO)cccc4[nH]3)n[nH]c2c1 [Example 25(f), 3-[4-(2-Hydroxyethylsulfanyl)-1H-benzoimidazol-2-yl]-6-(2-methoxy-4-hydroxyphenyl)-1H-indazole] | 1000 nM | 0.39 µM | –
23 | CNC(=O)c1ccc2[nH]c(-c3n[nH]c4cc(-c5ccc(O)cc5OC)ccc34)nc2c1 [Example 25(g), 3-(5-Methylcarbamoyl-1H-benzoimidazol-2-yl)-6-(2-methoxy-4-hydroxyphenyl)-1H-indazole] | 21 nM | 0.08 µM | –
24 | COc1cc(O)ccc1-c1ccc2c(-c3nc4cc(N(C)C)ccc4[nH]3)n[nH]c2c1 [Example 25(h), 3-(5-Dimethylamino-1H-benzoimidazol-2-yl)-6-(2-methoxy-4-hydroxy-phenyl)-1H-indazole] | 24 nM | 0.17 µM | –
25 | COc1cc(O)ccc1-c1ccc2c(-c3nc4ccc(S(N)(=O)=O)cc4[nH]3)n[nH]c2c1 [Example 25(i), 3-(5-Aminosulfonyl-1H-benzoimidazol-2-yl)-6-(2-methoxy-4-hydroxy-phenyl)-1H-indazole] | 20 nM | 0.021 µM | –
26 | CNC(=O)c1cccc2[nH]c(-c3n[nH]c4cc(-c5ccc(O)cc5OC)ccc34)nc12 [Example 25(j), 3-(4-Methylcarbamoyl-1H-benzoinidazol-2-yl)-6-(2-methoxy-4-hydroxy-phenyl)-1H-indazole] | 16 nM | 0.079 µM | –
27 | Clc1ccc(/C=C/c2n[nH]c3cc(-c4ccncc4)ccc23)cc1 [Example 29(c), 6-Pyrid-4-yl-3-E-[2-(4-chlorophenyl)ethenyl]-1H-indazole] | 2000 nM | – | Ki (CDK2/Cyclin A; Table 3): 2.2 µM
28 | COc1ccc(NC(=O)c2ccc3c(-c4nc5ccccc5[nH]4)n[nH]c3c2)cc1O [drawing 1257] | – | – | CHK-1 @ 20 μM (human CHK1 (FL-CHK1)): 32.3
29 | COC(=O)c1ccc(NC(=O)c2ccc3c(-c4nc5ccccc5[nH]4)n[nH]c3c2)o1 [drawing 1258] | – | – | CHK-1 @ 20 μM (human CHK1 (FL-CHK1)): 42.9
30 | C=CCC(NC(=O)c1ccc2c(-c3nc4ccccc4[nH]3)n[nH]c2c1)c1ccccn1 (stereo not drawn) [drawing 1259] | – | – | CHK-1 @ 20 μM (human CHK1 (FL-CHK1)): 24.1
31 | COC(=O)c1cc(NC(=O)c2ccc3c(-c4nc5ccccc5[nH]4)n[nH]c3c2)ccc1O [drawing 1260] | – | – | CHK-1 @ 20 μM (human CHK1 (FL-CHK1)): 31.6

Source: patent publication US6534524B1, “Indazole compounds and pharmaceutical compositions for inhibiting protein kinases, and methods for their use” (Agouron Pharmaceuticals, Inc., priority 1999, dated 2003)
